The target in assay [1] is Epidermal growth factor receptor (EGFR)(L858R)(T790M) (Homo sapiens, UniProt P00533, L858R/T790M). Kind of assay: Inhibitory Activity for EGFR (L858R/T790M) Kinase. On the procedure: (§1) A 50 ng/μL EGFR (L858R/T790M, Carna) stock solution was diluted with a kinase buffer (50 mM HEPES, 10 mM MgCl2, 2 mM DTT, 1 mM EGTA, 0.01% Tween 20), and 6 μL of 1.67× working solution at 0.004175 ng/μL (final concentration: 0.0025 ng/μL) was added to each well. Different compounds dissolved in DMSO were added to wells using a nanoliter pipettor, resulting in the final concentrations of the compounds of 10 nM to 0.0024 nM (4-fold gradient, 7 concentrations in total), and blank control wells (without enzyme) and negative control wells (with enzyme, plus vehicle DMSO) were set, 2 replicate wells for each concentration. After enzyme was reacted with the compound or vehicle for 30 min, 5×ATP at 25 μM (final concentration: 5 μM, Sigma) prepared with a kinase buffer was mixed with 5× substrate at 0.5 μM (final concentration: 0.1 μM, ULight-poly GT, PerkinElmer) at a ratio of 1:1 (v:v), and the mixture was added to each well at 4 μL/well. After being sealed with a film, the plate was incubated at room temperature for 2 h, and then 5 μL of 4×EDTA at 40 mM (final concentration: 10 mM) was added to each well. After the plate was incubated for 5 min at room temperature, 5 μL of 4× detection reagent at 8 nM (final concentration: 2 nM, Eu-anti-phospho-tyrosine antibody, PerkinElmer) was added to each well. After being incubated at room temperature for 1 h, the plate was read using a PerkinElmer Envision multi-mode microplate reader (excitation: 320 nm, emission: 665 nm), and IC50 was calculated by four-parameter fitting.

Assay [2] addresses Epidermal growth factor receptor [T790M,C797S,L858R] (UniProt P00533, C797S/L858R/T790M). Description: Inhibitory Activity for EGFR (L858R/T790M/C797S) Kinase. As for the experimental part:
as §1, with “(L858R/T790M/C797S, BPS)” for “(L858R/T790M, Carna)”, “0.00167” for “0.004175”, “0.001” for “0.0025”

By IC50 is commonly meant the concentration that inhibits the measured activity by half. Higher therefore signals weaker potency.

Sequence of Epidermal growth factor receptor [T790M,C797S,L858R] (P00533 25-1210 T790M/C797S/L858R limits assumed): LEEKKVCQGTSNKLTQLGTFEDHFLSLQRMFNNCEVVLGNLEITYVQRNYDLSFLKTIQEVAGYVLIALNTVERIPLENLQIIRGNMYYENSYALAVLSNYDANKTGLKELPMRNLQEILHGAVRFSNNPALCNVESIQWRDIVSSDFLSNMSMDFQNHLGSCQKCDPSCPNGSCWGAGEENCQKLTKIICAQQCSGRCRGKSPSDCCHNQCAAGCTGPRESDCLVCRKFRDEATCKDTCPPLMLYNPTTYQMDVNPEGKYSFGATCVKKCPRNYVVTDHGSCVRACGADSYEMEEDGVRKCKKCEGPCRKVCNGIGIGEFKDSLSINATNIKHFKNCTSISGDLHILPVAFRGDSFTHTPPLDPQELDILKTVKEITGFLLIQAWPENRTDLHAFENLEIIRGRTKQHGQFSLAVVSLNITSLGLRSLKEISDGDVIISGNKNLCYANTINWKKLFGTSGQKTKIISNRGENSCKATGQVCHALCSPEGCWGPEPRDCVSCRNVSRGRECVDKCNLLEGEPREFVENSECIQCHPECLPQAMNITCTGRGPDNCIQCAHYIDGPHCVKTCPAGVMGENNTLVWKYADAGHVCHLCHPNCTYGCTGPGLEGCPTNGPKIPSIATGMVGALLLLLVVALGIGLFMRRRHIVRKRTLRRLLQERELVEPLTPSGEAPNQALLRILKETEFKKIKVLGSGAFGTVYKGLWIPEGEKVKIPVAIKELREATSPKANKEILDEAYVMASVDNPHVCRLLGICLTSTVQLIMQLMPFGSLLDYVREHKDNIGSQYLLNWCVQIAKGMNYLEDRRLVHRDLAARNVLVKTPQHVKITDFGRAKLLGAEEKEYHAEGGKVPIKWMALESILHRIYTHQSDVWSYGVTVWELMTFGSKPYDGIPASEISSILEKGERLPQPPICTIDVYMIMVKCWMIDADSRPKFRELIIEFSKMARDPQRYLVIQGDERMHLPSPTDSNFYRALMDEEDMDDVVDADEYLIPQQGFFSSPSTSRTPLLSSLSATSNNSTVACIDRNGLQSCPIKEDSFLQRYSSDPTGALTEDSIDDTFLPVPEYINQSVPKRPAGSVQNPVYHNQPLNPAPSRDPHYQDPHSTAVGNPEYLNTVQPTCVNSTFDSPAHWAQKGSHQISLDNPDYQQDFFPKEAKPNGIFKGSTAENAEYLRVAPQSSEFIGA
Sequence of Epidermal growth factor receptor (EGFR)(L858R)(T790M) (P00533 25-1210 T790M/L858R limits assumed): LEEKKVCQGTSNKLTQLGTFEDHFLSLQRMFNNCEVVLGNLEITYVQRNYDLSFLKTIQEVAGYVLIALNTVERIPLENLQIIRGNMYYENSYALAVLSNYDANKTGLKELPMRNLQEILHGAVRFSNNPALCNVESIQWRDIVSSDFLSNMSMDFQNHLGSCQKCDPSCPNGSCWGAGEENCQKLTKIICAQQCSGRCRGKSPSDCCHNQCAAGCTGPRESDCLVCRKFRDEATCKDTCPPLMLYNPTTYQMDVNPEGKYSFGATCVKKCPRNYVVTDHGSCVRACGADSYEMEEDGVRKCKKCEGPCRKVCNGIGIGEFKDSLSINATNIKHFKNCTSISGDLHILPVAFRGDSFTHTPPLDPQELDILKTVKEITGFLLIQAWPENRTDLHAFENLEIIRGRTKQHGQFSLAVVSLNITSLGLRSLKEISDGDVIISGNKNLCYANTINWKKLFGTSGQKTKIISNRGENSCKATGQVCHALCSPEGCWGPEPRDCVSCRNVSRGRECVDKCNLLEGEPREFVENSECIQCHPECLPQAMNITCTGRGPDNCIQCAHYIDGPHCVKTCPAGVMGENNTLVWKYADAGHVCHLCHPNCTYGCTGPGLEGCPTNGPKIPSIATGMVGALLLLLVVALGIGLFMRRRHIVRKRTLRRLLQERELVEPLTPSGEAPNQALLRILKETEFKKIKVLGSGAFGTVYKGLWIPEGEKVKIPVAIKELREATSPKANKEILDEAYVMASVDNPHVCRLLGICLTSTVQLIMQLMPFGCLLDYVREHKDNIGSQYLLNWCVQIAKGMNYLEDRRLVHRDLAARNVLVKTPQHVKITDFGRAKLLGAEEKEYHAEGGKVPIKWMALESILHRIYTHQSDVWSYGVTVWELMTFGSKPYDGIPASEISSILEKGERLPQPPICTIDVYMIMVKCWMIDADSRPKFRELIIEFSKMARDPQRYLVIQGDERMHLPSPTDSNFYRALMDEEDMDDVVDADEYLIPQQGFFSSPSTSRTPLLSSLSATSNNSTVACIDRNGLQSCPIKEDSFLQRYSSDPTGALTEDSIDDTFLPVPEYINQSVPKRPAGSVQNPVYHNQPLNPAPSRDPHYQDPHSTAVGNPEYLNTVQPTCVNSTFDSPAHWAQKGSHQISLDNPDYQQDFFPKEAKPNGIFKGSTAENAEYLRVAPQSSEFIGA

For the molecule `Cc1cc2cc(n1)-c1cnn(C)c1OCCC[C@@H](C1CC1)CN1/C(=N/C2=O)Nc2cc(N[C@H](C)CN3CCCCC3)ccc21` [US20250034165, Example 137], the IC50 in assay [1] is 0.13 nM; in assay [2] it was 0.52 nM. For `Cc1cc2cc(n1)-c1cnn(C)c1OCCC[C@@H](C1CC1)CN1/C(=N/C2=O)Nc2ccc(NC(=O)CCN(C)C)cc21` [US20250034165, Example 112], in that order: 0.14 nM and 0.12 nM. On the same counts, the results for `Cc1cc2cc(n1)-c1cnn(C)c1OCCC[C@@H](C1CC1)CN1/C(=N/C2=O)Nc2cc(N[C@H]3C[C@@H](N(C)C)C3)ccc21` [US20250034165, Example 125] are 0.17 nM and 0.094 nM. For `Cc1cc2cc(n1)-c1cnn(C)c1OCCC[C@@H](C1CC1)CN1/C(=N/C2=O)Nc2cc(NC3CC(N(C)C)C3)ccc21` (stereo partly drawn) [US20250034165, Example 93], in that order: 0.61 nM and 0.5 nM. `Cc1cc2cc(n1)-c1cnn(C)c1OCCC[C@@H](C1CC1)CN1/C(=N/C2=O)Nc2ccc(N[C@H]3CC[C@@H](N(C)C)CC3)cc21` [US20250034165, Example 99] showed an IC50 in assay [2] of 0.21 nM. Molecule `Cc1cc2cc(n1)-c1cnn(C)c1OCCC[C@@H](C1CC1)CN1/C(=N/C2=O)Nc2ccc(N[C@H]3CC[C@@H](N(C)C)C3)cc21` [US20250034165, Example 132] came in with an IC50 in assay [1] of 0.082 nM. This lies in the picomolar range. `Cc1cc2cc(n1)-c1cnn(C)c1OCCC[C@@H](C1CC1)CN1/C(=N/C2=O)Nc2ccc(N[C@@H](C)CCN3CCCCC3)cc21` [US20250034165, Example 144]: the IC50 in assay [1] was 0.08 nM; in assay [2], 0.17 nM. On the same counts, the results for `Cc1cc2cc(n1)-c1cnn(C)c1OCCC[C@@H](C1CC1)CN1/C(=N/C2=O)Nc2cc(NC(C)C3(C)COC3)ccc21` (stereo partly drawn) [US20250034165, Example 89] are 0.8 nM and 0.6 nM.

In the case of `Cc1cc2cc(n1)-c1cnn(C)c1OCCC[C@@H](C1CC1)CN1/C(=N/C2=O)Nc2cc(N[C@@H]3CC[C@H](N(C)C)C3)ccc21` [US20250034165, Example 133], the IC50 in assay [1] is 0.49 nM; in assay [2], 0.66 nM. For `Cc1cc2cc(n1)-c1cnn(C)c1OCCC[C@@H](C1CC1)CN1/C(=N/C2=O)Nc2ccc(N[C@H](C)CCN3CCCCC3)cc21` [US20250034165, Example 143], in that order: 0.11 nM and 0.4 nM. As for `Cc1cc2cc(n1)-c1cnn(C)c1OCCC[C@@H](C1CC1)CN1/C(=N/C2=O)Nc2ccc(N[C@H]3C[C@@H](N(C)C)C3)cc21` [US20250034165, Example 127], the IC50 in assay [1] worked out at 0.41 nM; in assay [2], 0.35 nM. `Cc1cc2cc(n1)-c1cnn(C)c1OCCC[C@@H](C1CC1)CN1/C(=N/C2=O)Nc2cc(N[C@H]3CC[C@@H](N(C)C)C3)ccc21` [US20250034165, Example 131] had an IC50 in assay [1] of 0.094 nM. This counts as picomolar. Regarding `Cc1cc2cc(n1)-c1cnn(C)c1OCCC[C@@H](C1CC1)CN1/C(=N/C2=O)Nc2cc(N[C@H]3CC[C@H](N(C)C)C3)ccc21` [US20250034165, Example 135], the IC50 in assay [1] was determined as 0.32 nM; in assay [2], 0.43 nM.

For `Cc1cc2cc(n1)-c1cnn(C)c1OCCC[C@@H](C1CC1)CN1/C(=N/C2=O)Nc2cc(N[C@@H](C)CCN3CCCCC3)ccc21` [US20250034165, Example 140], the IC50 in assay [1] was found to be 0.11 nM; in assay [2], 0.3 nM. For the molecule `Cc1cc2cc(n1)-c1cnn(C)c1OCCC[C@@H](C1CC1)CN1/C(=N/C2=O)Nc2cc(N[C@H]3C[C@H](N(C)C)C3)ccc21` [US20250034165, Example 126], 0.12 nM corresponded to half-maximal inhibition in assay [1] (IC50). On the same count and under the same terms, for `Cc1cc2cc(n1)-c1cnn(C)c1OCCC[C@@H](C1CC1)CN1/C(=N/C2=O)Nc2ccc(N[C@H]3CC[C@H](N(C)C)CC3)cc21` [US20250034165, Example 100] the value was 0.23 nM; for `Cc1cc2cc(n1)-c1cnn(C)c1OCCC[C@@H](C1CC1)CN1/C(=N/C2=O)Nc2ccc(NC(=O)CN(C)C)cc21` [US20250034165, Example 111], 0.26 nM.
